Results: patent US9273285B1, “Shorter colony-forming cell assay” (STEMCELL TECHNOLOGIES INC., priority 2008, dated 2016)

B1: FLT-3 Ligand (protein, UniProt P49771 27-235, looked up)
Fms-related tyrosine kinase 3 …: TQDCSFQHSPISSDFAVKIRELSDYLLQDYPVTVASNLQDEELCGGLWRLVLAQRWMERLKTVAGSKMQGLLERVNTEIHFVTKCAFQPPPSCLRFVQTNISRLLQETSEQLVALKPWITRQNFSRCLELQCQPDSSTLPPPWSPRPLEATAPTAPQPPLLLLLLLPVGLLLLAAAWCLHWQRTRRRTPRPGEQVPPVPSPQDLLLVEH
notes: cytokine added to the culture medium

Tested on: Human CB mononuclear cells
Assay: Hematopoietic colony-forming cell (CFC) assay in methylcellulose-based MethoCult media
Parameters: key to Size, Morphology ranking: Ranking on the basis of colony size and morphology: 1 is best; 4 is worst
Conditions: for Colony numbers as percentage of colony numbers in medium without extra cytokines, Average: average of experiments
Procedure: Frozen ficolled cord blood mononuclear cells were thawed, nucleated cells were counted by microscopy using a hemacytometer after dilution in 3% acetic acid to lyse mature erythrocytes. The cells were diluted with Iscove's MDM to 10-fold the desired cell concentration. 0.4 mL of the cell suspensions were added into an aliquot of test MethoCult® medium (4 mL) and mixed by vortexing. 1.1 mL of each cell/medium mixture was dispensed into triplicate 35 mm culture dishes using 3 mL syringes with blunt end needles, with 1.1 mL of medium per dish. All cultures were incubated for 4, 7, 10 or the standard 14 days at 37° C., 5% CO2, 100% humidity. Colonies were enumerated and classified by bright-field microscopy into the following categories based on size and morphology: CFU-E, BFU-E, CFU-GM, CFU-GEMM (StemCell Technologies, Colony Atlas). […]
Methocult® H4435 medium, which contains the 6 cytokines IL-3, IL-6, SCF, GM-CSF, G-CSF and EPO, was supplemented with Zinc Sulphate at final concentrations 2, 10 and 20 μM and 4 different CB samples were cultured for 7 and 14 days as described in Example 1. […] In one experiment, CFU-GM colonies were larger in the presence of zinc, whereas BFU-E colony size was unchanged.
To examine if adding extra cytokines can further increase colony growth, culture medium as in Example 5 was supplemented with FL, TPO or both. Cultures were set up using Cord Blood cells and colonies were counted after 7 and 14 days. […] In three of the four experiments colony size and morphology after 14 days were very similar whether or not TPO and/or FL were present in the medium. In one experiment (Exp 4 in Table 2) colonies were slightly larger in cultures without TPO and FL compared to cultures with TPO and FL. […]

[1] = Exp. 1, 7 days, added to MethoCult medium with IL-3, IL-6, G-CSF, GM-CSF, SCF, EPO, cord blood

Molecule	Colony numbers as percentage of colony numbers in medium without extra cytokines (Exp. 1, 7 days) [%]	Size, Morphology ranking (Exp. 1, 7 days)	Colony numbers per 10^5 cells plated [1] [per 10^5 cells plated]	Colony numbers as percentage of colony numbers in medium without extra cytokines (Exp. 1, 14 days) [%]	Colony numbers per 10^5 cells plated (Exp. 1, 14 days) [per 10^5 cells plated]	Size, Morphology ranking (Exp. 1, 14 days)	Colony numbers as percentage of colony numbers in medium without extra cytokines (Exp. 2, 7 days) [%]	Colony numbers per 10^5 cells plated (Exp. 2, 7 days) [per 10^5 cells plated]	Size, Morphology ranking (Exp. 2, 7 days)	Colony numbers as percentage of colony numbers in medium without extra cytokines (Exp. 2, 14 days) [%]	Colony numbers per 10^5 cells plated (Exp. 2, 14 days) [per 10^5 cells plated]	Size, Morphology ranking (Exp. 2, 14 days)	Colony numbers as percentage of colony numbers in medium without extra cytokines (Exp. 3, 7 days) [%]	Colony numbers per 10^5 cells plated (Exp. 3, 7 days) [per 10^5 cells plated]	Size, Morphology ranking (Exp. 3, 7 days)	Colony numbers as percentage of colony numbers in medium without extra cytokines (Exp. 3, 14 days) [%]	Colony numbers per 10^5 cells plated (Exp. 3, 14 days) [per 10^5 cells plated]	Size, Morphology ranking (Exp. 3, 14 days)	Colony numbers as percentage of colony numbers in medium without extra cytokines, Average (7 days) [%]	Colony numbers as percentage of colony numbers in medium without extra cytokines, Average (14 days) [%]	also measured
O=S(=O)([O-])[O-].[Zn+2] [Zinc Sulphate]	–	–	–	–	–	–	–	–	–	–	–	–	–	–	–	–	–	–	–	–	total colony numbers on day 7 and 14 relative to media containing no Zinc, or 2 μM of Zinc (10 or 20 μM in Methocult H4435, 4 CB samples (FIG. 4)): increased; Effect on colony size after 14 days of culture (in Methocult H4435, 3 of the 4 experiments): no effects of zinc on colony size was observed; Colony size and morphology on day 7 compared to zinc-free medium (in Methocult H4435, particularly at 10 and 20 uM, three of 4 experiments): the colonies were larger, and more evenly spread out
Thrombopoietin [TPO]	78	2	210	93	287	1	102	393	1	102	480	1	107	317	2	107	360	1	95	101	–
B1	99	2	267	110	337	1	107	413	2	99	463	1	99	293	3	94	317	1	101	101	–
